According to PubChem BioAssay (NCI):
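Each compound was tested at five concentrations against cells in 96-well plates for 48 hours. Here, GI50 denotes the concentration required for 50% inhibition of growth. TGI: concentration producing complete growth inhibition.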

Assays:
Assay in all cases: growth of human tumour cells (NCI), 48 h
[1] = tested on: CCRF-CEM leukemia
[2] = tested on: HCT-116 colon
[3] = tested on: LOX IMVI melanoma
[4] = tested on: MCF7 breast
[5] = tested on: MDA-MB-231 breast
[6] = tested on: NCI-H23 lung
[7] = tested on: NCI-H522 lung
[8] = tested on: SK-OV-3 ovarian
[9] = tested on: SN12C renal
[10] = tested on: TK-10 renal

Row | SMILES | GI50 [1] | TGI [1] | GI50 [2] | GI50 [3] | TGI [3] | GI50 [4] | TGI [4] | GI50 [5] | TGI [5] | GI50 [6] | TGI [6] | GI50 [7] | TGI [7] | GI50 [8] | TGI [8] | GI50 [9] | TGI [9] | GI50 [10] | TGI [10] | TGI [2]
1 | CN1CCN(Cc2ccc(Nc3ncc(Cl)c(Nc4ccccc4S(=O)(=O)N(C)C)n3)cc2)CC1 | < 0.0187 µM | > 100 µM | < 0.0157 µM | < 0.0143 µM | 0.124 µM | < 0.01 µM | 1.17 µM | 0.0222 µM | 0.376 µM | 0.0338 µM | 0.358 µM | < 0.0246 µM | 0.255 µM | 0.219 µM | > 100 µM | 0.0399 µM | 1.23 µM | 0.0819 µM | 1.19 µM | 
2 | CCOC(=O)c1cc2ncccc2c2ccccc12 |  | > 100 µM |  |  | > 100 µM |  | > 100 µM |  | > 100 µM |  | > 100 µM |  | > 100 µM |  | > 100 µM |  | > 100 µM |  | > 100 µM | > 100 µM
3 | COc1ccc(Nc2ccnc(NCCCNc3ccnc4cc(Cl)ccc34)n2)cc1 | 0.34 µM | 1.8 µM | 0.374 µM | 0.322 µM | 1.27 µM | 0.599 µM | 2.42 µM | 0.583 µM | 2.15 µM | 2.43 µM | 8.5 µM | 1.62 µM | 3.67 µM | 1.68 µM | 3.18 µM | 1.59 µM | 8.94 µM | 1.54 µM | 3.17 µM | 1.54 µM
4 | Nc1nccc(Nc2ccc(S(N)(=O)=O)cc2)n1 |  | > 100 µM |  |  | > 100 µM |  | > 100 µM |  | > 100 µM |  | > 100 µM |  | > 100 µM |  | > 100 µM |  | > 100 µM |  | > 100 µM | > 100 µM
5 | COc1ccc(F)cc1C(=O)c1cnc(NC2CCN(S(C)(=O)=O)CC2)nc1N | 2.63 µM | > 21.3 µM | 1.21 µM | 2.09 µM | > 25 µM | 0.18 µM | > 25 µM | 2.49 µM | > 25 µM | 2.97 µM | 16.7 µM | 4.3 µM | 14.7 µM | 8.82 µM | > 25 µM | 4.92 µM | > 25 µM | 1.83 µM | 14.7 µM | > 25 µM
6 | C=C[C@]1(C)C=C2C(=O)[C@@]3(O)OC(=O)[C@@]4(CCCC(C)(C)[C@H]34)[C@@]2(O)CC1 | 0.383 µM | 10.7 µM | 1.3 µM | 1.72 µM | 3.24 µM | 1.42 µM | 6.96 µM | 1.46 µM | 3.43 µM | 2.14 µM | 5.29 µM | 0.57 µM | 2.03 µM | 4.65 µM | 17 µM | 1.96 µM | 4.82 µM | 1.49 µM | 2.92 µM | 2.86 µM
7 | CN1CCN(Cc2ccc(NC(=O)c3cncc(C#Cc4c(N)ncc5cc(F)ccc45)c3)cc2C(F)(F)F)CC1 | 1.04 µM | 2.65 µM | 0.595 µM | 0.587 µM | 1.26 µM | 0.591 µM | 1.35 µM | 0.477 µM | 1.13 µM | 1.36 µM | 4.65 µM | 2.01 µM | 5.45 µM | 6.3 µM | 13 µM | 1.39 µM | 3.84 µM | 2.08 µM | 4.43 µM | 1.26 µM
8 | O=C(/C=C\Sc1nccc(C(F)(F)F)n1)c1ccc(Br)cc1 | 3.68 µM | 11.9 µM | 12.8 µM | 13.7 µM | 27.2 µM | 28 µM | 84.8 µM | 19.1 µM | 44.4 µM | 22.8 µM | 52.6 µM | 15 µM | 33.2 µM | > 100 µM | > 100 µM | 18.8 µM | 43.1 µM | 26.4 µM | 59.6 µM | 25.5 µM
9 | O=C(O)CC1(C(=O)O)CCCCC1 |  | > 100 µM |  |  | > 100 µM |  | > 100 µM |  | > 100 µM |  | > 100 µM |  | > 100 µM |  | > 100 µM |  | > 100 µM |  | > 100 µM | > 100 µM
10 | O=C(Nc1ccc(Br)c(Cl)c1)c1cc(F)ccc1O | 1.43 µM | > 15.1 µM | 0.423 µM | 0.553 µM | 3.04 µM | 0.883 µM | > 50 µM | 0.76 µM | 2.61 µM | 0.36 µM | 3.17 µM | 0.238 µM | 2.93 µM | 0.633 µM | 3.79 µM | 0.533 µM | 8.91 µM | 1.92 µM | 29.8 µM | 2.08 µM
11 | CCCC(=O)NNc1[nH]c(-c2ccc(OC)cc2)cc1C(=O)OCC | 2.82 µM | > 100 µM | 37.2 µM | 16.8 µM | 30.5 µM | 17.7 µM | 35.3 µM | 16.6 µM | 30.2 µM | 14.9 µM | 38 µM | 24 µM | 50 µM | > 100 µM | > 100 µM | 17.1 µM | 30.9 µM | 15.9 µM | 30.1 µM | > 100 µM
12 | CC/C(=C(\CC)c1ccc(OCCN(CC)CC)cc1)c1ccc(OCCN(CC)CC)cc1 | 2.51 µM | 25 µM | 1.03 µM | 1.19 µM | 5.5 µM | 2.81 µM | 7.99 µM | 1.76 µM | 5.82 µM | 5.77 µM | 21.8 µM | 1.83 µM | 4.67 µM | 3.48 µM | 12 µM | 5.32 µM | 21.3 µM | 3.34 µM | 12.1 µM | 6.25 µM
